What was measured:
mice [1] = experiment: Forced swimming test in mice (FST); format: in vivo; settings: Mus musculus, 0.5 h, 30ip, 30 min after administration, vs control group, read-out: Reduction % at 30ip (duration of immobility)
Procedure: Forced Swimming Test in Mice (FST)
The Forced swimming test is an animal model based on the rodent's behavioral repertoire for screening drugs with potential antidepressant activity. As in several other models used for this goal, an uncontrollable stress stimulus produces behavioral changes that are sensitive to antidepressant treatment.
The mice were intraperitoneally treated with the test compound with an injection volume of […]. The group treated with 30% PEG400 served as a control group. Thirty minutes following administration, mice were individually forced to swim in a transparent glass vessel (14 cm high, 11.5 cm in diameter) filled with 10 cm of water at 25° C. The total duration of immobility (second) was measured during the last 4 minutes of a single 6-min test session. Mice were considered immobile when they made no further attempts to escape other than the movements necessary to keep their heads above the water. The potent ability of the compounds was determined as percent value of reduction in the duration of immobility comparing to the control group.

mice [2] = experiment: Acetic acid induced writhing test (AA writhing test); format: in vivo; settings: 30sc, 0.8% acetic acid i.p. 30 min later, vs control group
Source text: Specially the results of Marble burying test (MB) in mice as noted in Table 3 show the compounds of the invention are related to the treatment of anxiety. Acetic Acid Induced Writhing Test (AA Writhing Test)
The Acetic acid-induced writhing test is a well-established nociceptive test using a chemical stimulus. Although several animal models of nociceptive tests have been developed to examine and compare the anti-nociceptive effects of different drugs, the anti-nociceptive effects of antidepressants appear to be test-dependent. Indeed, the acetic acid-induced writhing test is more sensitive to antidepressants than other tests using thermal, mechanical or electrical stimuli.
The animals were subcutaneously treated with the test compound with an injection volume of 10 ml/kg. The group treated with 30% PEG400 or saline served as a control group. Thirty minutes later, the mice were intraperitoneally treated with 0.8% (v/v) acetic acid. Each mouse was then placed in a cage for individual observation. The writhing numbers for 10 minutes were counted. The writhe is operationally defined as a contraction of the abdomen followed by stretching of the hind limbs. The potent ability of the compounds was determined as percent value of reduction in the number of writhing comparing to the control group.

mice [3] = experiment: Marble burying test; format: in vivo; settings: 30ip, 30 min after treatment, vs control group
Source text: The Marble burying test is a screening tool for putative anxiolytics. In this test, control mice naturally bury glass marbles in the cage bedding and the administration of anxiolytic compounds, including Diazepam, reduces the number of buried marbles. Positive compounds in the marble burying test including selective serotonin reuptake inhibitor may be especially beneficial to obsessive-compulsive disorder.
A group of mice was intraperitoneally treated with test compound dissolved in 30% PEG400 with an injection volume of 10 ml/kg. The group treated with only 30% PEG400 served as a control group. Thirty minutes after the treatment, the animals were individually placed in a polycarbonate cage which was same as used for animal housing with an open top located within a quiet room. Each cage consisted of ⅛ inch corn bedding 5 cm deep. Twenty four clean glass marbles (15 mm diameter) were evenly spaced in four rows of six on top of the bedding. Each mouse was left in the cage for 30 minutes and the number of marbles buried (buried more than ½ or ⅔) was counted. The potent ability of the compounds was determined as percent value of reduction in the number of marbles buried comparing to the control group.

[4] = biological target: T1, human recombinant dopamine transporter (Homo sapiens, UniProt Q01959); experiment: Dopamine transporter reuptake inhibition assay; format: cell-based; settings: 100 nM; CHO-K1 cells with human dopamine transporter; [3H]Dopamine uptake; read-out: Inhibition % at 100 nM DA reuptake
T1 construct: expressed in transfected cells; host or cells: CHO-K1
Procedure: Dopamine Transporter Reuptake Inhibition Assay
The assay followed the method modified from Pristupa Z. B. et al., Mol. Pharmacol., 1994, p 125˜135.
CHO-K1 cells with human recombinant dopamine transporter were plated. Test compounds were pre-incubated with cells (4×10^5/ml) in modified Tris-HEPES buffer pH 7.1 for 20 minutes at 25° C. and then they were incubated for additional 10 minutes after 50 nM of [^3H]Dopamine was added. A lysate is obtained from solubilized cells and counted to determine [^3H]Dopamine uptake. Reduction of [^3H]Dopamine uptake by 50 percent or more (≧50%) relative to 10 μM nomifensine indicates significant inhibitory activity. Compounds were tested at 10, 1, 0.1, 0.01 and 0.001 μM for IC50s.

[5] = biological target: T2, human recombinant norepinephrine transporter (Homo sapiens, UniProt P23975); experiment: Norepinephrine transporter reuptake inhibition assay; format: cell-based; settings: 100 nM; MDCK cells with human norepinephrine transporter; [3H]Norepinephrine uptake; read-out: Inhibition % at 100 nM NE reuptake
T2 construct: expressed in transfected cells; host or cells: MDCK
Procedure: Norepinephrine Transporter Reuptake Inhibition Assay
Norepinephrine transporter reuptake inhibition assay used the method described by Galli A. et al., J Exp Biol., 1995, 198, p 2197˜2212.
MDCK cells with stably expressed human recombinant norepinephrine transporter were plated one day. Test compounds were pre-incubated with cells (2×10^5/ml) in modified Tris-HEPES buffer pH 7.1 for 20 minutes at 25° C. and then they were incubated for additional 10 minutes after 25 nM of [^3H]Norepinephrine was added. A lysate was obtained from solubilized cells and the filtered lysate was counted to determine [^3H]Norepinephrine uptake. Reduction of [^3H]Norepinephrine uptake by 50 percent or more (≧50%) relative to 10 μM desipramine indicates significant inhibitory activity. Compounds were screened at 10, 1, 0.1, 0.01 and 0.001 μM to determine their IC50s.

[6] = biological target: T3, human serotonin transporter (Homo sapiens, UniProt P31645); experiment: Serotonin transporter reuptake inhibition assay; format: cell-based; settings: HEK293; 100 nM; HEK-293 cells with human serotonin transporter; [3H]Serotonin uptake; read-out: Inhibition % at 100 nM 5-HT reuptake
T3 construct: expressed in transfected cells; host or cells: HEK-293
Procedure: Serotonin Transporter Reuptake Inhibition Assay
The method to test the ability of compounds to inhibit transporters from reuptake of serotonin followed Gu H. et al., J Biol. Chem., 1994, 269, p […].
The recombinant HEK-293 cells with human serotonin transporter were plated. Test compounds were pre-incubated with cells (2×10^5/ml) in modified Tris-HEPES buffer pH 7.1 for 20 minutes at 25° C. and then they were incubated for additional 10 minutes after 65 nM of [^3H]Serotonin was added. Bound cells were filtered and counted to determine [^3H]Serotonin uptake. Reduction of [^3H]Serotonin uptake by 50 percent or more (≧50%) relative to 10 μM fluoxetine indicates significant inhibitory activity. Compounds were screened at 10, 1, 0.1, 0.01 and 0.001 μM for IC50s.

T2 sequence (P23975 whole entry): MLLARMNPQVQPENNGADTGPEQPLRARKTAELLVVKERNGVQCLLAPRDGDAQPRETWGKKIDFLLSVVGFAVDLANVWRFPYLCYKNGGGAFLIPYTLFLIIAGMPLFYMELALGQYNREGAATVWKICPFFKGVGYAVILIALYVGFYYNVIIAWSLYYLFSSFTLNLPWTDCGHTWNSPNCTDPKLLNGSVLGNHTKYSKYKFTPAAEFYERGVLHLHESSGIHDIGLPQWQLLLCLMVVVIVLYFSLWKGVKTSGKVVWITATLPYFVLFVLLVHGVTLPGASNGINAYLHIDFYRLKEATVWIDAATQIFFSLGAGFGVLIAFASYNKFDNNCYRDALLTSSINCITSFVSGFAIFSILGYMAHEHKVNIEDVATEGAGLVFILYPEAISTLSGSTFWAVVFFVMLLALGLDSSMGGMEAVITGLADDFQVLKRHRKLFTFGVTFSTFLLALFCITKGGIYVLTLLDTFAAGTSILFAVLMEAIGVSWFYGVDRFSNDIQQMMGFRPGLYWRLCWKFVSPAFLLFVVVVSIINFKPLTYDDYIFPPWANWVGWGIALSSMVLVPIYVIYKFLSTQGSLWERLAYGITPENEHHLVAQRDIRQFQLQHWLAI
T1 sequence (Q01959 whole entry): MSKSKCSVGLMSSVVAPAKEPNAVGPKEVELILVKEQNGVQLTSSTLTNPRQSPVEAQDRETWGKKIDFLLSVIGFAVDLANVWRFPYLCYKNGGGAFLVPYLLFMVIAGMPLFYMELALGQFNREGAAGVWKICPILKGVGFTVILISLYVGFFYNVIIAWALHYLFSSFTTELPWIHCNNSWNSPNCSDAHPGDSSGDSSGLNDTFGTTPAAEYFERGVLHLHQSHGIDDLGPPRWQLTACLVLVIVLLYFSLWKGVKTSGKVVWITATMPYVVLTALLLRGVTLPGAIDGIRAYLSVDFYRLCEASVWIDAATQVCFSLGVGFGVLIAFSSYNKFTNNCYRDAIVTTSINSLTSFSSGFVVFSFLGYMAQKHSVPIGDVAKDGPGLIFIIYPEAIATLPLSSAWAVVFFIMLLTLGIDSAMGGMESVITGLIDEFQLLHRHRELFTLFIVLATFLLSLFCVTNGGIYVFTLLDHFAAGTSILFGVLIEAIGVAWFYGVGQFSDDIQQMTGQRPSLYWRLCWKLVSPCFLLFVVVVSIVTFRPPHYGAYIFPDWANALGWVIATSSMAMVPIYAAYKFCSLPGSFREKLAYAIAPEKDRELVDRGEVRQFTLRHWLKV
T3 sequence (P31645 whole entry): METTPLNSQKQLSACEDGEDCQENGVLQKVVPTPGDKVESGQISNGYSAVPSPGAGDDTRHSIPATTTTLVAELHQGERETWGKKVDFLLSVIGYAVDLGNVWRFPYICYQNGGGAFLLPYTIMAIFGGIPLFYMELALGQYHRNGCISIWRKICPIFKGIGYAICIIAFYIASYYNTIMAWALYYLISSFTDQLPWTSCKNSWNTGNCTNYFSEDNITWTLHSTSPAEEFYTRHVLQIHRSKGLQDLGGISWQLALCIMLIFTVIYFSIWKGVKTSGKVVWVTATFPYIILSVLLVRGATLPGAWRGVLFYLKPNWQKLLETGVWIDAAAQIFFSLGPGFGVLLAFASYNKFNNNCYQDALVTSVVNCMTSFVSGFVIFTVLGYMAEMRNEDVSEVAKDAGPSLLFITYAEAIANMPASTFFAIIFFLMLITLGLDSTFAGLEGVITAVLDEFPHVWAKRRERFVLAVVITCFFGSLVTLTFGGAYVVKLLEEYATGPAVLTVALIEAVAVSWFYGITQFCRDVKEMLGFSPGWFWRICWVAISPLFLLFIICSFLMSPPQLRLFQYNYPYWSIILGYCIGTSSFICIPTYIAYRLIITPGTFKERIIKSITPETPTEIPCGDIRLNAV

inhibition at 0.1 µM [4] [%]	inhibition at 0.1 µM [5] [%]	inhibition at 0.1 µM [6] [%]	Compound	inhibition in vivo at 30 mg/kg (mice [1]) [%]	Reduction % at 30sc (number of writhing) (mice [2]) [%]	Reduction % at 30ip (number of marbles buried) (mice [3]) [%]
92	90	83	Cc1nnn([C@@H](c2ccc3ccccc3c2)[C@@H]2CCCNC2)n1 [Example 12, (3R)-3-[(R)-(5-methyl-2H-tetrazol-2-yl)(naphthalen-2-yl)methyl]piperidine]	9.7	50.5	91.8
99	98	75	Clc1ccc([C@@H]([C@@H]2CCCNC2)n2ncnn2)cc1Cl [Example 15, (3R)-3-[(R)-(3,4-dichlorophenyl)(2H-tetrazol-2-yl)methyl]piperidine]	96.5	55.3	75.3
54	46	92	Fc1ccc2cc([C@H]([C@H]3CCCNC3)n3ncnn3)ccc2c1 [Example 71]	54	48.7	86.0
66	78	96	Fc1ccc2cc([C@@H]([C@@H]3CCCNC3)n3ncnn3)ccc2c1 [Example 83, (3R)-3-[(R)-(6-fluoronaphthalen-2-yl)(2H-tetrazol-2-yl)methyl]piperidine]	51.8	84.1	83.7
